Assay results reported in patent US20080019931A1, “Method and composition for producing enhanced fingernails” (PROSTRONG, INC, priority 2004, published 2008).

Test: Solubility in water
Type: physicochemical

With `O=P([O-])([O-])P(=O)([O-])[O-].[Ca+2].[Ca+2]` [Calcium Hypophosphate] the solubility in water was “soluble in water”.
